Assay results as given in BindingDB's records for doi:10.1016/j.bioorg.2015.10.007 (University of Thessaly, 2015).
pIC50, pKi: −log10 of the molar value.

How the values were obtained:
[1] = biological target: T1, Non-secretory ribonuclease (Homo sapiens, UniProt P10153); assay: Ribonuclease Activity Assay; details: 30 °C
T1 sequence (P10153 whole entry): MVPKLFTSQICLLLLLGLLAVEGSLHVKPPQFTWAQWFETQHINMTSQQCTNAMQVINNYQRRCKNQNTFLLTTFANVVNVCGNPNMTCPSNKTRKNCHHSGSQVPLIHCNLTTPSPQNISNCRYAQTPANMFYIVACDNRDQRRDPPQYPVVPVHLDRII
Procedure: (§1) The Ribonuclease Activity assay used was adapted from the procedure described by Anfinsen et al. and Slifman et al. Determination of ribonuclease activity of RNase A and EDN proceeded as follows: yeast tRNA (Sigma-Aldrich) was solubilized in 50 mM sodium phosphate, pH = 7.4, at a concentration of 60 uM. Various tRNA concentrations were used: 2 uM, 3 uM, 4 uM, 5 uM and 6 uM. The final volume of the reaction was 300 ul. tRNA solutions were incubated at 30 C for 10 min. 10 nM of enzyme final concentration from a 0.6 uM stock solution added to the reactionmixture. The reaction was stopped one minute and five minutes later in the case of RNase A and EDN respectively, by the addition of 300 ul of fresh ice-cold solution of 40 mM lanthanum nitrate, 6% v/v perchloric acid. Stopped reactions were maintained on ice for 15 min, and insoluble tRNA was removed by centrifugation at 4 C for 15 min at 14.500 rpm on a bench centrifuge. The amountof cleaved tRNA was determined from the ultraviolet absorbance at 260 nm (A260) of the supernatant fraction.

Ribonuclease pancreatic = Ribonuclease pancreatic (Bos taurus, UniProt P61823); assay: Ribonuclease Activity Assay; details: 30 °C
Procedure: as §1

Ribonuclease pancreatic, sequence (P61823 whole entry): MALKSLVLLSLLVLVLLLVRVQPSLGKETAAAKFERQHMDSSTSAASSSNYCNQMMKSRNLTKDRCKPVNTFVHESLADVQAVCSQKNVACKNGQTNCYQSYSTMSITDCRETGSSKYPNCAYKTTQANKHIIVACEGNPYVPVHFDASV

pIC50 [1] | pKi [1] | pKi (Ribonuclease pancreatic) | SMILES
3.75 | 3.93 |  | O=c1ccn(Cc2cn([C@@H]3O[C@H](CO)[C@H](O)C3O)nn2)c(=O)[nH]1 (stereo partly drawn) [1-({1-[(2R,5R)-3,4-dihydroxy-5-(hydroxymethyl)oxolan-2-yl]-1H-1,2,3-triazol-4-yl}methyl)-1,2,3,4-tetrahydropyrimidine-2,4-dione (I)]
4.20 | 4.35 |  | O=c1[nH]c(=O)n(Cc2cn([C@@H]3O[C@H](CO)[C@H](O)C3O)nn2)cc1F (stereo partly drawn) [1-({1-[(2R,5R)-3,4-dihydroxy-5-(hydroxymethyl)oxolan-2-yl]-1H-1,2,3-triazol-4-yl}methyl)-5-fluoro-1,2,3,4-tetrahydropyrimidine-2,4-dione (III)]
 |  | 3.58 | Nc1ncnc2c1ncn2Cc1cn([C@@H]2C(O)[C@H](n3cc(F)c(=O)[nH]c3=O)O[C@@H]2CO)nn1 (stereo partly drawn) [1-[3'-[4-[(Adenine-9-yl)methyl]-1,2,3-triazol-1-yl]-b-D-ribofuranosyl]5-fluorouracil (5c)]
 |  | 3.80 | Nc1ncnc2c1ncn2Cc1cn([C@@H]2C(O)[C@H](n3ccc(=O)[nH]c3=O)O[C@@H]2CO)nn1 (stereo partly drawn) [1-[3'-[4-[(Adenine-9-yl)methyl]-1,2,3-triazol-1-yl]-b-D-ribofuranosyl]uracil (5a)]
4.48 | 4.58 |  | Cc1cn([C@@H]2O[C@H](CO)[C@H](O)C2O)c(=O)[nH]c1=O (stereo partly drawn) [1-[(2R,5R)-3,4-dihydroxy-5-(hydroxymethyl)oxolan-2-yl]-5-methyl-1,2,3,4-tetrahydropyrimidine-2,4-dione (IV)]
3.27 | 3.34 |  | O=c1[nH]c(=O)n(Cc2cn([C@@H]3O[C@H](CO)[C@H](O)C3O)nn2)cc1Cl (stereo partly drawn) [5-chloro-1-({1-[(2R,5R)-3,4-dihydroxy-5-(hydroxymethyl)oxolan-2-yl]-1H-1,2,3-triazol-4-yl}methyl)-1,2,3,4-tetrahydropyrimidine-2,4-dione (II)]
2.83 | 2.97 |  | O=c1[nH]c(=O)n([C@@H]2O[C@H](CO)[C@H](O)C2O)cc1Cl (stereo partly drawn) [5-chloro-1-[(2R,5R)-3,4-dihydroxy-5-(hydroxymethyl)oxolan-2-yl]-1,2,3,4-tetrahydropyrimidine-2,4-dione (V)]
4.05 | 4.24 | 4.01 | NC1=NC=NC2C1N=CN2[C@@H]1O[C@H](CO)[C@H](n2cc(Cn3ccc(N)nc3=O)nn2)C1O (stereo partly drawn) [9-[3'-[4-[(Cytosine-1-yl)methyl]-1,2,3-triazol-1-yl]-b-D-ribofuranosyl]adenine (11c)]
3.42 | 3.61 | 3.82 | Cc1cn(Cc2cn([C@@H]3C(O)[C@H](n4cnc5c(NC(=O)c6ccccc6)ncnc54)O[C@@H]3CO)nn2)c(=O)[nH]c1=O (stereo partly drawn) [9-[3'-[4-[(Thymine-1-yl)methyl]-1,2,3-triazol-1-yl]-b-D-ribofuranosyl]N6-benzoyladenine (11b)]
3.25 | 3.44 | 4.16 | Cc1cn(Cc2cn([C@@H]3C(O)[C@H](N4C=NC5C(N)=NC=NC54)O[C@@H]3CO)nn2)c(=O)[nH]c1=O (stereo partly drawn) [9-[3'-[4-[(Thymine-1-yl)methyl]-1,2,3-triazol-1-yl]-b-D-ribofuranosyl]adenine (12b)]
3.39 | 3.57 | 4.26 | O=C(Nc1ncnc2c1ncn2[C@@H]1O[C@H](CO)[C@H](n2cc(Cn3ccc(=O)[nH]c3=O)nn2)C1O)c1ccccc1 (stereo partly drawn) [9-[3'-[4-[(Uracil-1-yl)methyl]-1,2,3-triazol-1-yl]-b-D-ribofuranosyl]N6-benzoyladenine (11a)]
3.19 | 3.37 | 3.97 | NC1=NC=NC2C1N=CN2[C@@H]1O[C@H](CO)[C@H](n2cc(Cn3ccc(=O)[nH]c3=O)nn2)C1O (stereo partly drawn) [9-[3'-[4-[(Uracil-1-yl)methyl]-1,2,3-triazol-1-yl]-b-D-ribofuranosyl]adenine (12a)]

SMILES | pIC50 [1] | pKi [1] | pKi (Ribonuclease pancreatic)
O=c1[nH]c(=O)n([C@@H]2O[C@H](CO)[C@H](O)C2O)cc1F (stereo partly drawn) [1-[(2R,5R)-3,4-dihydroxy-5-(hydroxymethyl)oxolan-2-yl]-5-fluoro-1,2,3,4-tetrahydropyrimidine-2,4-dione (VI)] | 3.55 | 3.68 | 
